This passage reports IC50 results from US20170369470A1, “Cyclic Compounds and Uses Thereof” (Karyopharm Therapeutics Inc., priority 2014, published 2017).

Common to all, as to assay type: cell-based
The test system of one assay is MS751 cells. Kind of assay: MTT cell proliferation assay, MS751 cells. Particulars: MS751 cells (human cervix squamous cell carcinoma metastasis); incubation approximately 64-72 hours; read-out: MTT Assay IC50 MS 751. The protocol:
(§1) The MTT cell proliferation assay was used to study the cytotoxic properties of the compounds. The assay was performed according to the method described by Roche Molecular Biochemicals, with minor modifications. The assay is based on the cleavage of the tetrazolium salt, MTT, in the presence of an electron-coupling reagent. The water-insoluble formazan salt produced must be solubilized in an additional step. Cells grown in a 96-well tissue culture plate were incubated with the MTT solution for approximately 4 hours. After this incubation period, a water-insoluble formazan dye formed. After solubilization, the formazan dye was quantitated using a scanning multi-well spectrophotometer (ELISA reader). […] The cells were seeded at 5,000-10,000 cells in each well of 96-well plate in 100 μL of fresh culture medium and were allowed to attach overnight. The stock solutions of the compounds were diluted in 100 μL cell culture medium to obtain eight concentrations of each test compound, ranging from 1 nM to 30 μM. […] All optical densities were measured at 490 nm using a Vmax Kinetic Microplate Reader (Molecular Devices). In most cases, the assay was performed in duplicate and the results were presented as a mean percent inhibition to the negative control±SE. The following formula was used to calculate the percent of inhibition: Inhibition (%)=(1−(ODo/OD))×100.
(§2) The compounds were tested against MS751, Z138 and 3T3 cells. The MS751 cell line is derived from a metastasis to lymph node of human cervix from a patient diagnosed with squameous cell carcinoma of the cervix. The Z138 cell line is a mature B-cell acute lymphoblastic leukemia cell line derived from a patient with chronic lumphocytic leukemia. 3T3 cells are standard fibroblast cells; they were originally isolated from Swiss mouse embryo tissue.

The subject of the next assay is Z138 cells. The assay can be described thus: MTT cell proliferation assay, Z138 cells. Particulars: Homo sapiens, Z-138; Z138 cells (mantle cell lymphoma line); incubation approximately 64-72 hours. On the procedure:
as §1, §2

For a further assay, the system named is 3T3 cells. Kind of assay: MTT cell proliferation assay, 3T3 cells. Particulars: NIH3T3; 3T3 fibroblast cells (Swiss mouse embryo); incubation approximately 64-72 hours. The protocol: as §1, §2

A value given as a limit tells only on which side of the number the result lay.

Consider `Nc1ccc(/C=C/C(=O)NCc2cc3cc(-c4ccc(C(=O)N5CCOCC5)cc4)cc(Cl)c3s2)cn1` [compound 500, (E)-3-(6-aminopyridin-3-yl)-N-((7-chloro-5-(4-(morpholine-4-carbonyl)phenyl)benzo[b]thiophen-2-yl)methyl)acrylamide], for which the 50% inhibitory concentration (IC50) in the assay with MS751 cells is less than 1 µM; in the assay with Z138 cells it was less than 1 µM; in the assay with 3T3 cells it was greater than 10 µM.
Turning to `Nc1ccc(/C=C/C(=O)NCc2cc3cc(-c4ccc(C(=O)N5CCC(F)(F)CC5)cn4)cc(C(F)(F)F)c3[nH]2)cn1` [compound 501, (E)-3-(6-aminopyridin-3-yl)-N-((5-(5-(4,4-difluoropiperidine-1-carbonyl)pyridin-2-yl)-7-(trifluoromethyl)-1H-indol-2-yl)methyl)acrylamide], the IC50 in the assay on MS751 cells, in the assay with Z138 cells and with 3T3 cells was greater than 10 µM throughout.
In the case of `Cn1c(CNC(=O)/C=C/c2ccc(N)nc2)cc2cc(-c3ccc(C(=O)N4CCC(F)(F)CC4)cn3)cc(C(F)(F)F)c21` [compound 502, (E)-3-(6-aminopyridin-3-yl)-N-((5-(5-(4,4-difluoropiperidine-1-carbonyl)pyridin-2-yl)-1-methyl-7-(trifluoromethyl)-1H-indol-2-yl)methyl)acrylamide], the half-inhibitory concentration (IC50) in the assay on MS751 cells, in the assay with Z138 cells and in the assay with 3T3 cells was greater than 10 µM each time.
For `Nc1ccc(/C=C/C(=O)NCc2cc3cc(-c4ccc(C(=O)N5CCC(F)(F)CC5)cn4)cc(C(F)(F)F)c3s2)cn1` [compound 503, (E)-3-(6-aminopyridin-3-yl)-N-((5-(5-(4,4-difluoropiperidine-1-carbonyl)pyridin-2-yl)-7-(trifluoromethyl)benzo[b]thiophen-2-yl)methyl)acrylamide], the 50% inhibitory concentration (IC50) was 1 to 5 µM with MS751 cells, 1 to 5 µM with Z138 cells and greater than 10 µM in the assay on 3T3 cells.
As to `Nc1ccc(/C=C/C(=O)NCc2cc3cc(-c4ccc(C(=S)N5CCC(F)(F)CC5)cn4)cc(C(F)(F)F)c3s2)cn1` [compound 504, (E)-3-(6-aminopyridin-3-yl)-N-((5-(5-(4,4-difluoropiperidine-1-carbonothioyl)pyridin-2-yl)-7-(trifluoromethyl)benzo[b]thiophen-2-yl)methyl)acrylamide], the half-inhibitory concentration (IC50) is less than 1 µM with MS751 cells, less than 1 µM in the assay with Z138 cells and greater than 10 µM in the assay with 3T3 cells.
Take `Nc1ccc(/C=C/C(=O)NCc2cc3cc(-c4ccc(C(=O)N5CCC(O)(C(F)(F)F)CC5)cn4)cc(C(F)(F)F)c3s2)cn1` [compound 505, (E)-3-(6-aminopyridin-3-yl)-N-((5-(5-(4-hydroxy-4-(trifluoromethyl)piperidine-1-carbonyl)pyridin-2-yl)-7-(trifluoromethyl)benzo[b]thiophen-2-yl)methyl)acrylamide]: the half-maximal inhibitory concentration (IC50) in the assay on MS751 cells is 1 to 5 µM; with Z138 cells, 1 to 5 µM; in the assay with 3T3 cells, greater than 10 µM.
In the case of `Nc1ccc(/C=C/C(=O)NCc2cc3cc(-c4ccc(C(=O)N5CCOCC5)cn4)cc(C(F)(F)F)c3s2)cn1` [compound 506, (E)-3-(6-aminopyridin-3-yl)-N-((5-(5-(morpholine-4-carbonyl)pyridin-2-yl)-7-(trifluoromethyl)benzo[b]thiophen-2-yl)methyl)acrylamide], the IC50 in the assay on MS751 cells is 1 to 5 µM; in the assay on Z138 cells, 1 to 5 µM; in the assay on 3T3 cells, greater than 10 µM.
Consider `CC1(F)CCN(C(=O)c2ccc(-c3cc(C(F)(F)F)c4sc(CNC(=O)/C=C/c5ccc(N)nc5)cc4c3)nc2)C1` (stereo not drawn) [compound 507, (E)-3-(6-aminopyridin-3-yl)-N-((5-(5-(3-fluoro-3-methylpyrrolidine-1-carbonyl)pyridin-2-yl)-7-(trifluoromethyl)benzo[b]thiophen-2-yl)methyl)acrylamide], for which the IC50 in the assay with MS751 cells is 1 to 5 µM; with Z138 cells, 1 to 5 µM; in the assay on 3T3 cells it was greater than 10 µM.
As to `CC1(C)COCCN1C(=O)c1ccc(-c2cc(C(F)(F)F)c3sc(CNC(=O)/C=C/c4ccc(N)nc4)cc3c2)nc1` [compound 508, (E)-3-(6-aminopyridin-3-yl)-N-((5-(5-(3,3-dimethylmorpholine-4-carbonyl)pyridin-2-yl)-7-(trifluoromethyl)benzo[b]thiophen-2-yl)methyl)acrylamide], the IC50 with MS751 cells was 1 to 5 µM; in the assay with Z138 cells, 1 to 5 µM; with 3T3 cells, greater than 10 µM.
Consider `Nc1ccc(/C=C/C(=O)NCc2cc3cc(-c4ccc(C(=O)N5CCC(O)(C(F)(F)F)C5)cn4)cc(C(F)(F)F)c3s2)cn1` (stereo not drawn) [compound 509, (E)-3-(6-aminopyridin-3-yl)-N-((5-(5-(3-hydroxy-3-(trifluoromethyl)pyrrolidine-1-carbonyl)pyridin-2-yl)-7-(trifluoromethyl)benzo[b]thiophen-2-yl)methyl)acrylamide], for which the IC50 with MS751 cells is 1 to 5 µM; in the assay on Z138 cells, less than 1 µM; with 3T3 cells, greater than 10 µM.
The matching figures for `Nc1ccc(/C=C/C(=O)NCc2cc3cc(-c4ccc(C(=O)N5CCC(F)(F)C5)cn4)cc(C(F)(F)F)c3s2)cn1` [compound 510, (E)-3-(6-aminopyridin-3-yl)-N-((5-(5-(3,3-difluoropyrrolidine-1-carbonyl)pyridin-2-yl)-7-(trifluoromethyl)benzo[b]thiophen-2-yl)methyl)acrylamide]: 1 to 5 µM, 1 to 5 µM and greater than 10 µM.
The matching figures for `Nc1ccc(/C=C/C(=O)NCc2cc3cc(-c4ccc(C(=O)N5CC6(COC6)C5)cn4)cc(C(F)(F)F)c3s2)cn1` [compound 511, (E)-N-((5-(5-(2-oxa-6-azaspiro[3.3]heptane-6-carbonyl)pyridin-2-yl)-7-(trifluoromethyl)benzo[b]thiophen-2-yl)methyl)-3-(6-aminopyridin-3-yl)acrylamide]: less than 1 µM, less than 1 µM and greater than 10 µM.
On to `Nc1ccc(/C=C/C(=O)NCc2cc3cc(-c4ccc(C(=O)N5CC(F)(F)C5)cn4)cc(C(F)(F)F)c3s2)cn1` [compound 512, (E)-3-(6-aminopyridin-3-yl)-N-((5-(5-(3,3-difluoroazetidine-1-carbonyl)pyridin-2-yl)-7-(trifluoromethyl)benzo[b]thiophen-2-yl)methyl)acrylamide], for which the IC50 was 1 to 5 µM with MS751 cells, less than 1 µM in the assay with Z138 cells and 5 to 10 µM in the assay with 3T3 cells.
Take `Nc1ccc(/C=C/C(=O)NCc2cc3cc(-c4ccc(C(=O)N5CC[C@H](F)C5)cn4)cc(C(F)(F)F)c3s2)cn1` [compound 513, (S,E)-3-(6-aminopyridin-3-yl)-N-((5-(5-(3-fluoropyrrolidine-1-carbonyl)pyridin-2-yl)-7-(trifluoromethyl)benzo[b]thiophen-2-yl)methyl)acrylamide]: the figures for the IC50 in the assay on MS751 cells, in the assay on Z138 cells and in the assay on 3T3 cells were 1 to 5 µM, 1 to 5 µM and 5 to 10 µM, respectively.
With `CC1(C)CN(C(=O)c2ccc(-c3cc(C(F)(F)F)c4sc(CNC(=O)/C=C/c5ccc(N)nc5)cc4c3)nc2)CCO1` [compound 514, (E)-3-(6-aminopyridin-3-yl)-N-((5-(5-(2,2-dimethylmorpholine-4-carbonyl)pyridin-2-yl)-7-(trifluoromethyl)benzo[b]thiophen-2-yl)methyl)acrylamide], the 50% inhibitory concentration (IC50) was 1 to 5 µM in the assay with MS751 cells, less than 1 µM in the assay on Z138 cells and greater than 10 µM in the assay on 3T3 cells.
Take `Nc1ccc(/C=C/C(=O)NCc2cc3cc(-c4ccc(C(=O)N5CC6(C5)CC(F)(F)C6)cn4)cc(C(F)(F)F)c3s2)cn1` [compound 515, (E)-3-(6-aminopyridin-3-yl)-N-((5-(5-(6,6-difluoro-2-azaspiro[3.3]heptane-2-carbonyl)pyridin-2-yl)-7-(trifluoromethyl)benzo[b]thiophen-2-yl)methyl)acrylamide]: the half-inhibitory concentration (IC50) was less than 1 µM in the assay on MS751 cells, less than 1 µM with Z138 cells and greater than 10 µM in the assay with 3T3 cells.
For the molecule `CC1(O)CCN(C(=O)c2ccc(-c3cc(C(F)(F)F)c4sc(CNC(=O)/C=C/c5ccc(N)nc5)cc4c3)nc2)CC1` [compound 516, (E)-3-(6-aminopyridin-3-yl)-N-((5-(5-(4-hydroxy-4-methylpiperidine-1-carbonyl)pyridin-2-yl)-7-(trifluoromethyl)benzo[b]thiophen-2-yl)methyl)acrylamide], the 50% inhibitory concentration (IC50) with MS751 cells was 1 to 5 µM; with Z138 cells, less than 1 µM; in the assay on 3T3 cells, greater than 10 µM.
For `Nc1ccc(/C=C/C(=O)NCc2cc3cc(-c4ccc(C(=O)N5CCC(F)CC5)cn4)cc(C(F)(F)F)c3s2)cn1` [compound 517, (E)-3-(6-aminopyridin-3-yl)-N-((5-(5-(4-fluoropiperidine-1-carbonyl)pyridin-2-yl)-7-(trifluoromethyl)benzo[b]thiophen-2-yl)methyl)acrylamide], the IC50 is 1 to 5 µM in the assay with MS751 cells, 1 to 5 µM in the assay on Z138 cells and greater than 10 µM with 3T3 cells.
